Data published in patent publication EP2163246A1, “Taurine or taurine-like substances for the prevention of the irreversible visual effects of vigabatrin” (INSERM (Institut National de la Santé et de la Recherche …, priority 2008, dated 2010).
“Also recorded” adds a separate entry of the source. Where two headings read alike, the source gives them in different places.

Key:
retina [1] = assay: Photopic electroretinogram (ERG) in VGB-treated mice; type: in vivo, BALB/c mice
Method: (§1) ERG were recorded as described previously after the last VGB injection (Duboc et al., 2004). Anesthesia was induced by an intramuscular injection of a solution containing ketamine (100 mg/kg) and xylazine (10 mg/kg). After 10 min adaptation to a […] light intensity, ten recordings were obtained with flash intensity of 10 cdsm^-2 at an interstimulus interval 30s and subsequently averaged. These photopic ERG measurements were performed after 59 days in rats and 29 days in mice.
(§2) Sabril IS Investigator and Peer Review Groups. Epilepsia Vol. 37, 638-642 (1996)).
(§3) Animals were light-adapted for 10 minutes with a background light of 25 cdm^-2. Light flashes were then applied on this background light; the light intensity of the flash was 10 cdsm^-2 for the mouse experiments and for the rats maintained in darkness (Figs. 2, 6) or 25 cdsm^-2 for other experiments (Figs 3, 5). Ten recordings were averaged with an interstimulus interval of 30s.

cone photoreceptors [2] = assay: Retinal histology quantification in VGB-treated rats (cone arrestin, GFAP); type: in vivo, Wistar rats Rj Wi IOPS Han
Method: (§4) Sabril IS Investigator and Peer Review Groups. Epilepsia Vol. 37, 638-642 (1996)). […] The primary antibody added to the solution was incubated for two hours at room temperature. Polyclonal antibodies were directed against VGluT1 (1:2000, Chemicon), rabbit GFAP (1/400, Dako, USA) and mouse cone arrestin (Zhu, X., et al. Mouse cone arrestin expression pattern: light induced translocation in cone photoreceptors. Molecular vision Vol. 8, 462-471 (2002)) (Luminaire junior, LUMIj, 1:20,000). Monoclonal antibodies were directed against Goα (1:2000, Chemicon). […] Inner/outer segments of cone photoreceptors were stained with a peanut lectin (PNA, Sigma) during 12 hours of incubation at 4°C. The dye, diamidiphenyl-indole (DAPI), was added during the final incubation period. […] Following DAPI nuclear staining, the lengths of disorganised retinal areas were measured; GFAP immunostaining was used for detection and quantificationof retinal areas with reactive gliosis. The cone photoreceptor density was calculated following cone arrestin immunostaining (rats) or PNA labelling (mice) to visualise the inner/outer segments of cone photoreceptors; areas with disorganised retinal layering were excluded. Areas with sprouting bipolar cells were quantified following immunolabelling of these cells with the antibody directed against the protein Goα.

cone photoreceptors [3] = assay: Retinal histology quantification in VGB-treated mice (DAPI, PNA, Goα); type: in vivo, BALB/c mice
Method: as §4

GABA = details: rats (Neal MJ. et al. 1989; Cubells JF. et al. 1987); cited from earlier work
[4] = rats, VGB 65 days, versus control
Method: VGB was dissolved in 0.9 % NaCl at a concentration of 125 mg/ml. It was administered at 40 mg (125 mg/ml, 0.32 ml) by daily intraperitoneal injection for 45 or 65 days and at 3 mg (60 mg/ml, 0.05 ml) to mice for 29 days (daily dose of about 200 mg/kg in rats and 150 mg/kg in mice). Vitamin B6 (active form) was administered at a dose of 1 mM/kg (solution 154,46 mg/ml) whereas taurine was provided in the drinking water at 0,1 mol/l.
After 65 days of injection, rats were anesthetized for blood sampling. Anesthesia was induced as described above. Under anesthesia an indwelling catheter was placed in the carotid artery. This method allowed obtaining a single, large, good quality blood sample. A 1 mL blood sampling was taken for each rat in a heparinized blood sampler, immediately centrifuged and frozen at -80°C. Automated amino acid ion chromatography (Pasteur Cerba, France) was used for the quantitative determination of total and free amino acids in the samples.
VGB dissolved in 0.9% NaCl was administered at 40mg (125 mg/ml, 0.32ml) to rats by daily intraperitoneal injection for 45 or 65 days and at 3mg (60mg/ml, 0.05ml) to mice for 29 days. […] Taurine supplementation was given in drinking water at a concentration of 0.1M.

retinal ganglion cells = details: young rats, VGB 0.6 mg/day i.p. 25 days, versus control
Method: Animal treatments: Breeds of Wistar rats Rj Wi IOPS Han were purchased from Janvier (Le Genest-St-lsle, France). VGB dissolved in 0.9% NaCl was administered at 0.6mg/jour (6 mg/ml, 0.1ml) to rats by daily intraperitoneal injection for 25 days from age 4 days.
Histology: Animals were anesthetized by intraperitoneal injection (0.8 to 1.2 ml/kg) of a solution containing ketamine (40 mg/ml) and xylazine (4 mg/ml Rompum). They were then perfused first with heaparin 1000Ul/ml in saline solution (0.9% NaCl), then with fixative containing 4% Paraformaldehyde (Merck chemicals ref. : 100496 ) and 0.2% glutaraldehyde (fluka 25%). Eye cups were isolated and fixed overnight at 4°C in 4% (wt/vol) paraformaldehyde in phosphate buffered saline (PBS; 0.01 M, pH 7.4). The tissue was cryoprotected in successive solutions of PBS containing 10%, 20% and 30% sucrose at 4°C, oriented along the dorso-ventral axis and embedded in OCT (Labonord, Villeneuve d'Ascq, France). […]
For quantification, vertical sections along the dorso-ventral axis were selected at the optic nerve. Brn3A -positive retinal ganglion cells were quantified along the complete retinal section. […]

[5] = rats (Sills GJ. et al. 2001); cited from earlier work
retina [6] = system: retina; parameters: species or system Wistar rats Rj Wi IOPS Han; details: rat, in vivo
Method: as §1, §2, §3

[7] = VGB plus taurine versus VGB alone, p<0.001

Cc1ncc(COP(=O)(O)O)c(C=O)c1O [vitamin B6, pyridoxal-5'-phosphate]
photopic ERG amplitude (retina [1]; mice, VGB plus vitamin B6 (active form) 1 mM/kg (Fig. 1B)): smaller decrease in photopic ERG than with vigabatrin alone; also recorded: reduced the decrease in photopic ERG amplitude

NCCS(=O)(=O)O [taurine, 2-aminoethanesulfonic acid]
photopic ERG amplitude (retina [1]; mouse, in vivo): the difference was no longer statistically significant between controls and vigabatrin plus taurine supplementation
GFAP immunostaining (cone photoreceptors [2]; [7]): less extensive in animals receiving taurine supplementation than in animals without supplementation
cone segment density (cone photoreceptors [2]; VGB plus taurine versus VGB alone, p<0.05, remained lower than control): greater in the VGB-treated group with taurine supplementation than in animals without supplementation
sprouting of bipolar cell dendrites (cone photoreceptors [3]; VGB plus taurine): completely suppressed
cone density (cone photoreceptors [3]; [7]): prevented this decrease in cone density
disorganisation of the outer nuclear layer (areas of retinal disorganisation) (cone photoreceptors [3]; VGB plus taurine versus VGB alone, p<0.001 (Fig. 4B)): smaller areas of retinal disorganisation than mice without supplementation

C=CC(N)CCC(=O)O (stereo not drawn) [VGB, 4-amino-5-hexenoic acid]
GABA concentrations in the brain relative to control rats (GABA): two-fold higher
GABA concentrations in the retina relative to control rats (GABA): five-fold higher
decrease of taurine level in vigabatrin-treated animals ([4]; p<0.05): 67%
difference (reduction) for methionine ([4]; significant): 22%
reduction of glutamic acid in the blood sample ([4]; statistically significant): 56%
GFAP immunostaining (cone photoreceptors [2]; VGB alone): increase in GFAP immunostaining
sprouting of bipolar cell dendrites (cone photoreceptors [3]; VGB alone): observed in VGB-treated mice
density of cone outer and inner segments (cone photoreceptors [3]; VGB alone versus control, p<0.001 (Fig. 4C)): lower densities
decrease of the number of retinal ganglion cells (retinal ganglion cells): 56%
concentration in the retina relative to the brain [5]: five-fold higher
photopic ERG amplitude (retina [6]): induced a decrease in the photopic electroretinogram (ERG) measurement
